Assay results as given in patent US20230181524A1, “PHARMACEUTICAL COMBINATION AND USE THEREOF” (NATURAL MEDICINE INSTITUTE OF ZHEJIANG YANGSHENGTANG CO., …, priority 2020, published 2023).
Entries after “also recorded” stand apart in the source; their conditions may differ. Read-outs that look alike come from different tables or passages of the source.

Columns and labels:
HEK293 cells = experiment: Cell viability compared with HEK293 cells (specificity); assay type: cell-based; settings: in combination with ascorbic acid
Procedure: HEK293 cells, HOS human osteosarcoma cells, and 143B human osteosarcoma cells were subcultured in an incubator at 37° C., 5% CO2 using a RPMI-1640 medium containing 10% fetal bovine serum (FBS).
(§1) 10 μL was taken for counting.
(§2) (5) After 24h of dosing, the medium was discarded. […] The cells were digested for 5 min;

[1] = test system: HCT116 human colon cancer cells; experiment: cells; settings: HCT116 cells
Procedure: (§3) (1) Cells were plated in a 10 cm culture plate to grow a density of about 90%. The medium was removed, and the adherent cells were washed once with a PBS buffer. 1 mL of trypsin was added, and immediately discarded after mixing well. The cells were placed in the incubator and digested for about 5 min, and then about 10 ml of fresh medium was added. 10 μL was taken for counting.
(§4) (2) 10 μL of the well-mixed cells were taken and mixed into 10 μL of Trypan Blue solution, and counted.
(§5) (3) After counting, the cells were diluted to 1×10^5 cells/ml. The diluted cells were mixed well, and plated into a 24-well plate with 500 μL per well, i.e., about 50,000 cells per well.
(§6) (4) The cells plated in the 24-well plate were cultured for about 24h, and then drugs were added. Various test groups comprise 5 groups as follows: the single-drug group of PKF118-310 (with a concentration of 0.1 μM), the group of ascorbic acid (with a concentration of 0.5 mM), the group of PKF118-310 (with a concentration of 0.1 μM) in combination with ascorbic acid (with a concentration of 0.5 mM); the control group that is a cell group to which only solvent DMSO is added; and the blank group that is a group to which no cell is added and only solvent (DMSO) is added.
(§7) (5) After 24h of dosing, the medium was discarded. About 150 μL of trypsin was added and then discarded. The cells were digested for 5 min;
(§8) (6) After digestion, equivalent amounts of PBS were added into each well and mixed uniformly. Then, 10 μL/well of Trypan Blue solution was added and mixed uniformly. 10 μL of the well-mixed solution was taken and counted. In accordance with “Cell viability=Cell Count of Test Group/Cell Count of Control Group×100%”, the cell viability of various groups was calculated.
(§9) The inhibitory effect of PKF118-310 on the MC38 human colon cancer cells and the HCT116 human […] cancer cells was detected in accordance with the corresponding method of Example 1.

[2] = test system: 143B human osteosarcoma cells; experiment: Cell counts of drug combination administration (Trypan Blue), cell viability; settings: 143B cells
Procedure: as §3, §4, §5
(§10) (4) The cells plated in the 24-well plate were cultured for about 24h, and then drugs were added. […]
as §7, §8
(§11) The coefficient of drug in interaction (CDI) was used to evaluate the nature of the interaction between the two drugs. The test groups were divided into the control group, the group of A drug, the group of B drug and the group of AB in combination, and used for detecting the cell viability in A, B and AB groups, respectively.

[3] = test system: HOS human osteosarcoma cells; experiment: as above
Procedure: as §3, §4, §5, §10, §7, §8, §11

T cells = experiment: Cell viability of immune cells by cell count; assay type: cell-based; settings: 0.1 μM PKF118-310 in combination with 0.5 mM ascorbic acid, 24h
Procedure: (§12) Immune cells comprise T cells and Macrophages, wherein the T cells are cultured with a 1640 medium, and the macrophages are cultured with a DMEM medium. The particular procedures are follows:
as §1, §2

macrophages = experiment: Cell viability of immune cells by cell count; assay type: cell-based; settings: 0.1 μM PKF118-310 in combination with 0.5 mM ascorbic acid, 24h
Procedure: as §12, §1, §2

[4] = test system: MC38 human colon cancer cells; experiment: Cell viability, method of Example 1; settings: MC38 cells
Procedure: as §3, §4, §5, §6, §7, §8, §9

[5] = test system: 3AO human ovarian cancer cells; experiment: cells; settings: 3AO cells
Procedure: as §3, §4, §5, §6, §7, §8
(§13) The inhibitory effect of PKF118-310 on the SKOV3 human ovarian cancer cells and the 3AO human ovarian cancer cells was detected in accordance with the corresponding method of Example 1.

[6] = test system: SKOV3 human ovarian cancer cells; experiment: cells; settings: SKOV3 cells
Procedure: as §3, §4, §5, §6, §7, §8, §13

DB lymphoma cells = test system: DB lymphoma cells
Procedure: as §3, §4, §5, §6, §7, §8
For example, as for the DB lymphoma cells, the control group involves adding the solvent DMSO alone, the Vc group involves adding 2 mM of ascorbic acid, the low-dose PKF group involves adding 2 μM of PKF118-310, the low-dose PKF+Vc group involves adding 2 μM of PKF118-310 and 2 mM of ascorbic acid, the high-dose PKF group involves adding 5 μM of PKF118-310, and the high-dose PKF+the Vc group involves adding 5 μM of PKF118-310 and 2 mM of ascorbic acid.

[7] = 0.3 μM in combination with 0.5 mM sodium ascorbate
[8] = 0.1 μM in combination with 0.5 mM sodium ascorbate
[9] = 0.5 μM in combination with 0.5 mM sodium ascorbate

Structure (SMILES): Cn1ncnc2c(=O)n(C)c(=O)nc1-2 [PKF118-310]
- effect on the body weight of mice (PKF118-310 0.7 mg/kg s.c. in combination with ascorbate 1 g/kg i.v. every 3 days): no effect on the body weight of mice
- effect on the body weight of mice (alone, PKF118-310 0.7 mg/kg s.c. or ascorbate 1 g/kg i.v. every 3 days): no effect on the body weight of mice
- specificity of inhibition of tumor cell viability as compared with the HEK293 cells (HEK293 cells): can specifically inhibit the cell viability of the 143B cells and the HOS cells; also recorded: can specifically inhibit the activity of the HCT116 cells and the MC38 cells
- CDI value [1, 7]: 0.24
- cell viability [1, 7]: 22%
- cell viability ([1]; single-drug 0.3 μM): 92%
- CDI value [2, 8]: 0.04
- cell viability [2, 8]: 2%
- cell viability ([2]; single-drug 0.1 μM, 24h): 91%
- CDI value (coefficient of drug interaction) [3, 8]: 0.12
- cell viability [3, 8]: 10%
- cell viability ([3]; single-drug 0.1 μM, 24h): 94%
- effect on immune cells (cell viability) (T cells): does not have effect on the immune cells
- effect on immune cells (cell viability) (macrophages): does not have effect on the immune cells
- CDI value [4, 7]: 0.15
- cell viability [4, 7]: 11%
- cell viability ([4]; single-drug 0.3 μM): 88%
- CDI value [5, 8]: 0.35
- cell viability [5, 8]: 31%
- CDI value [5, 7]: 0.19
- cell viability [5, 7]: 13%
- cell viability ([5]; 0.05 M in combination with 0.5 mM sodium ascorbate): 58%
- CDI value ([5]; in combination with 0.5 mM sodium ascorbate): 0.60
- cell viability ([5]; single-drug 0.1 μM): 92%
- cell viability ([5]; single-drug 0.3 μM): 69%
- cell viability ([5]; single-drug 0.05 M): 101%
- CDI value [6, 7]: 0.31
- cell viability [6, 7]: 28%
- CDI value [6, 9]: 0.34
- cell viability [6, 9]: 20%
- cell viability ([6]; single-drug 0.3 μM): 94%
- cell viability ([6]; single-drug 0.5 μM): 61%
- cell viability (DB lymphoma cells; 2 μM and 2 mM ascorbic acid): 12%
- cell viability (DB lymphoma cells; 5 μM and 2 mM ascorbic acid): 11%
- CDI value (DB lymphoma cells; high-dose (5 μM) with 2 mM ascorbic acid): 0.18
- CDI value (DB lymphoma cells; low-dose (2 μM) with 2 mM ascorbic acid): 0.17
- cell viability (DB lymphoma cells; single drug 2 μM (low-dose)): 72%
- cell viability (DB lymphoma cells; single drug 5 μM (high-dose)): 67%
